Test results as given in PubChem BioAssay AID2060500 (Molecular Pharmacology Branch, DTP, NCI, 2025).

Tested on: 596521-263-R-J1-PDC complex spheroids, viability % of control
Assay: Anticancer human tumor 596521-263-R-J1-PDC patient-derived soft tissue sarcoma cell line growth inhibition [GQUAD]
Conditions: for IC50: curve of first compound; for viability, T/C: stronger effect = lower value
Summary of the method: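 Viability of tumor cells grown as complex spheroids with endothelial and stromal cells, exposed to drug combinations. Top concentration at or near clinical Cmax (else 10 microM), diluted in half-log increments.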

[1] = second compound 0.0316 µM, first compound 0.0316 µM
[2] = second compound 0.0316 µM, first compound 0.1 µM
[3] = second compound 0.0316 µM, first compound 0.316 µM
[4] = second compound 0.0316 µM, first compound 1 µM
[5] = second compound 0.0316 µM, first compound 3.16 µM
[6] = second compound 0.0316 µM, first compound 10 µM
[7] = second compound 0.1 µM, first compound 0.0316 µM
[8] = second compound 0.1 µM, first compound 0.1 µM
[9] = second compound 0.1 µM, first compound 0.316 µM
[10] = second compound 0.1 µM, first compound 1 µM
[11] = second compound 0.1 µM, first compound 3.16 µM
[12] = second compound 0.1 µM, first compound 10 µM
[13] = second compound 0.316 µM, first compound 0.0316 µM
[14] = second compound 0.316 µM, first compound 0.1 µM
[15] = second compound 0.316 µM, first compound 0.316 µM
[16] = second compound 0.316 µM, first compound 1 µM
[17] = second compound 0.316 µM, first compound 3.16 µM
[18] = second compound 0.316 µM, first compound 10 µM
[19] = second compound 1 µM, first compound 0.0316 µM
[20] = second compound 1 µM, first compound 0.1 µM
[21] = second compound 1 µM, first compound 0.316 µM
[22] = second compound 1 µM, first compound 1 µM
[23] = second compound 1 µM, first compound 3.16 µM
[24] = second compound 1 µM, first compound 10 µM
[25] = second compound 3.16 µM, first compound 0.0316 µM
[26] = second compound 3.16 µM, first compound 0.1 µM
[27] = second compound 3.16 µM, first compound 0.316 µM
[28] = second compound 3.16 µM, first compound 1 µM
[29] = second compound 3.16 µM, first compound 3.16 µM
[30] = second compound 3.16 µM, first compound 10 µM
[31] = second compound 10 µM, first compound 0.0316 µM
[32] = second compound 10 µM, first compound 0.1 µM
[33] = second compound 10 µM, first compound 0.316 µM
[34] = second compound 10 µM, first compound 1 µM
[35] = second compound 10 µM, first compound 3.16 µM
[36] = second compound 10 µM, first compound 10 µM
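Also: spheroids exposed to drugs for 7 days before viability reading.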
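For viability, T/C in this document: 100% = DMSO vehicle control viability.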

SMILES: COc1cccc2c1C(=O)c1c(O)c3c(c(O)c1C2=O)CC(O)(C(=O)CO)CC3OC1CC(N)C(O)C(C)O1 (stereo unspecified) + CN(C)c1ccc(Nc2c3ccc(NC(=O)CCN4CCCC4)cc3nc3cc(NC(=O)CCN4CCCC4)ccc23)cc1
- IC50 (second compound 0.0316 µM): 687 nM
- IC50 (second compound 0.1 µM): 910 nM
- IC50 (second compound 0.316 µM): 722 nM
- IC50 (second compound 1 µM): 787 nM
- IC50 (second compound 3.16 µM): 1010 nM
- IC50 (second compound 10 µM): 408 nM
- viability, T/C [1]: 96.9%
- viability, T/C [2]: 75.1%
- viability, T/C [3]: 55.8%
- viability, T/C [4]: 54.9%
- viability, T/C [5]: 29.7%
- viability, T/C [6]: 3.98%
- viability, T/C [7]: 94.2%
- viability, T/C [8]: 73.8%
- viability, T/C [9]: 70.3%
- viability, T/C [10]: 47.7%
- viability, T/C [11]: 29.4%
- viability, T/C [12]: 6.1%
- viability, T/C [13]: 108%
- viability, T/C [14]: 80.6%
- viability, T/C [15]: 53.1%
- viability, T/C [16]: 51.5%
- viability, T/C [17]: 29.6%
- viability, T/C [18]: 5.16%
- viability, T/C [19]: 104%
- viability, T/C [20]: 76.7%
- viability, T/C [21]: 58.5%
- viability, T/C [22]: 55.8%
- viability, T/C [23]: 31%
- viability, T/C [24]: 5.6%
- viability, T/C [25]: 89.5%
- viability, T/C [26]: 84.5%
- viability, T/C [27]: 55.6%
- viability, T/C [28]: 56.6%
- viability, T/C [29]: 30.3%
- viability, T/C [30]: 6.32%
- viability, T/C [31]: 67.3%
- viability, T/C [32]: 59.1%
- viability, T/C [33]: 47.7%
- viability, T/C [34]: 42.9%
- viability, T/C [35]: 30.8%
- viability, T/C [36]: 5.21%

SMILES: Nc1ccn(C2OC(CO)C(O)C2(F)F)c(=O)n1 (stereo unspecified) + CN(C)c1ccc(Nc2c3ccc(NC(=O)CCN4CCCC4)cc3nc3cc(NC(=O)CCN4CCCC4)ccc23)cc1
- IC50 (second compound 0.0316 µM): < 31.6 nM
- IC50 (second compound 0.1 µM): < 31.6 nM
- IC50 (second compound 0.316 µM): 121 nM
- IC50 (second compound 1 µM): < 31.6 nM
- IC50 (second compound 3.16 µM): < 31.6 nM
- IC50 (second compound 10 µM): < 31.6 nM
- viability, T/C [1]: 48.3%
- viability, T/C [2]: 39.2%
- viability, T/C [3]: 40.5%
- viability, T/C [4]: 37.3%
- viability, T/C [5]: 44.5%
- viability, T/C [6]: 40.2%
- viability, T/C [7]: 53.9%
- viability, T/C [8]: 42.2%
- viability, T/C [9]: 40%
- viability, T/C [10]: 39.1%
- viability, T/C [11]: 44.1%
- viability, T/C [12]: 38.1%
- viability, T/C [13]: 53.6%
- viability, T/C [14]: 46.6%
- viability, T/C [15]: 48.7%
- viability, T/C [16]: 49.8%
- viability, T/C [17]: 40.1%
- viability, T/C [18]: 39.4%
- viability, T/C [19]: 46.7%
- viability, T/C [20]: 41.5%
- viability, T/C [21]: 39.3%
- viability, T/C [22]: 42.2%
- viability, T/C [23]: 39%
- viability, T/C [24]: 40.5%
- viability, T/C [25]: 44.7%
- viability, T/C [26]: 44.2%
- viability, T/C [27]: 40.6%
- viability, T/C [28]: 42.5%
- viability, T/C [29]: 40.5%
- viability, T/C [30]: 35.6%
- viability, T/C [31]: 42.4%
- viability, T/C [32]: 37.4%
- viability, T/C [33]: 33.4%
- viability, T/C [34]: 35.2%
- viability, T/C [35]: 38%
- viability, T/C [36]: 38.2%

SMILES: O=c1[nH]cc(F)c(=O)[nH]1 + CN(C)c1ccc(Nc2c3ccc(NC(=O)CCN4CCCC4)cc3nc3cc(NC(=O)CCN4CCCC4)ccc23)cc1
- IC50 (second compound 0.0316 µM): > 10000 nM
- IC50 (second compound 0.1 µM): > 10000 nM
- IC50 (second compound 0.316 µM): > 10000 nM
- IC50 (second compound 1 µM): > 10000 nM
- IC50 (second compound 3.16 µM): > 10000 nM
- IC50 (second compound 10 µM): > 10000 nM
- viability, T/C [1]: 111%
- viability, T/C [2]: 118%
- viability, T/C [3]: 94.2%
- viability, T/C [4]: 94.4%
- viability, T/C [5]: 109%
- viability, T/C [6]: 91.1%
- viability, T/C [7]: 102%
- viability, T/C [8]: 117%
- viability, T/C [9]: 105%
- viability, T/C [10]: 97%
- viability, T/C [11]: 110%
- viability, T/C [12]: 89.7%
- viability, T/C [13]: 107%
- viability, T/C [14]: 92.1%
- viability, T/C [15]: 95.4%
- viability, T/C [16]: 93.9%
- viability, T/C [17]: 95.4%
- viability, T/C [18]: 96.4%
- viability, T/C [19]: 98.9%
- viability, T/C [20]: 101%
- viability, T/C [21]: 102%
- viability, T/C [22]: 111%
- viability, T/C [23]: 105%
- viability, T/C [24]: 98.2%
- viability, T/C [25]: 89.4%
- viability, T/C [26]: 89.6%
- viability, T/C [27]: 103%
- viability, T/C [28]: 85.6%
- viability, T/C [29]: 110%
- viability, T/C [30]: 80%
- viability, T/C [31]: 66.5%
- viability, T/C [32]: 67.4%
- viability, T/C [33]: 63.1%
- viability, T/C [34]: 75.2%
- viability, T/C [35]: 68.4%
- viability, T/C [36]: 64.1%
